{
  "source": "patent US20210393742A1",
  "about": "“LONG-ACTING INTERLEUKIN-15 RECEPTOR AGONIST IN COMBINATION WITH ANOTHER PHARMACOLOGICALLY ACTIVE AGENT” (Nektar Therapeutics, priority 2018, published 2021)",
  "key": {"Daudi B cell lymphoma [1]": {"system": "Daudi B cell lymphoma", "assay": "NK cell counts, Daudi cell counts and granzyme B in bone marrow, Daudi xenograft model, combination with daratumumab (Example 2)", "assay_type": "in vivo, mice", "experimental": "SCID mice (N=6/group) were intravenously inoculated with 1×10^7 Daudi cells on Day 0 and treated with a single dose of the anti-human CD38 antibody, daratumumab (0.5 mg/kg IP, 14 days following Daudi cell inoculation) and two doses of mono(methoxyPEG-N-butanamide)interleukin-15 (0.3 mg/kg SC, one dose at each of 14 and 21 days after inoculation). Mice were also treated with the single agent therapies: daratumumab (0.5 mg/kg IP, 14 days following Daudi cell inoculation) or two doses of mono(methoxyPEG-N-butanamide)40 kD interleukin-15 (0.3 mg/kg SC, 14 and 21 days after inoculation).\n(One-way ANOVA, Tukey's multiple comparison test)."}, "NK cells [2]": {"system": "NK cells", "assay": "NKG2A and NKG2D surface expression on bone marrow NK cells of Daudi lymphoma bearing mice (Example 4)", "assay_type": "in vivo", "details": "bone marrow day 24; Conjugate 1 0.3 mg/kg SC days 14 and 21; antibody 0.5 mg/kg IP day 14", "experimental": "(§1) Balb/c mice bearing Daudi B cell lymphoma tumors in the bone marrow (n=6/group) were intraperitoneally administered a single 0.5 mg/kg dose of the human CD38 protein targeting clinical antibody daratumumab (DARZALEX®, Janssen Biotech) or a nonspecific control antibody with a matching isotype on day 14 after Daudi cell intravenous inoculation. Additional groups were administered mono(methoxyPEG-N-butanamide)40 kD interleukin-15 (Conjugate 1) subcutaneously at a dose of 0.3 mg/kg as a single agent on days 14 and 21 after Daudi cell inoculation, or administered a combination treatment of Conjugate 1 administered subcutaneously at doses of 0.03 mg/kg or 0.3 mg/kg on days 14 and 21 after Daudi cell inoculation and daratumumab administered intraperitoneally at a dose of 0.5 mg/kg on day 14 after Daudi cell inoculation.\nThree days following the second Conjugate 1 administration (day 24 after Daudi inoculation), bone marrow was collected and the NK cell fraction was measured by flow cytometry in total bone marrow. Expression of the cell surface activating receptor NKG2D and the inhibitory checkpoint receptor NKG2A are shown in FIGS. 7A and 7B, respectively."}, "[3]": {"system": "human multiple myeloma RPMI-8226 cells", "assay": "NK cell cytotoxicity (ADCC) against daratumumab pre-coated RPMI-8226 cells (Example 9)", "assay_type": "cell-based", "details": "NK cells primed with 1000 ng/mL overnight; targets pre-coated with daratumumab 100 ng/mL; E:T 10:1, 3 hr", "experimental": "Human NK cells were magnetically sorted from normal donor PBMCs using negative selection. NK cells were seeded in a 96-well U-bottom plate at a density of 400,000 cells/well. NK cells were stimulated with 1000 ng/mL of a long-acting IL-15 receptor agonist (mono(mPEG-butanamide)IL-15) (+) or left unstimulated (−) in complete RPMI-1640 media supplemented with 10% fetal bovine serum (FBS) and 1% antibiotic/antimycotic overnight at 37° C. in 5% CO2.\nThe human multiple myeloma RPMI-8226 cells (ATCC #CCL-155) were washed in PBS and stained with 0.15 μM CFSE for 5 min at 37° C. The tumor cells were pre-coated with 100 ng/mL daratumumab (+) for 1 hr at 37° C. where indicated. The stimulated NK cells (effector cells) and the pre-coated CFSE-labeled tumor cells (target cells) were co-cultured in an E:T ratio of 10:1 for 3 hr at 37° C. in 5% CO2. Following incubation, cells were washed in flow staining buffer, Fc-blocked for 15 min at 4° C., and surface-stained (CD45, CD56, CD3-fluorescently conjugated antibodies). The cells were washed in PBS and incubated in 7-aminoactinomycin (7-AAD) viability stain for 30 minutes at 4° C. before acquiring for flow cytometric analysis using a Fortessa (BD). The percentage of 7-AAD+CFSE+ target cells from total cell population is the percentage for dead tumor cells."}, "NK cells [4]": {"system": "NK cells", "assay": "Granzyme B expression per cell in bone marrow NK cells of Daudi lymphoma bearing mice (Example 11)", "assay_type": "in vivo", "details": "bone marrow day 24; Conjugate 1 0.3 mg/kg; antibody 0.5 mg/kg", "experimental": "as §1, with “daratumumab (DARZALEX®),” for “daratumumab (DARZALEX®,”, “were treated with (i) mono(mPEG-N-butanamide)40” for “were administered mono(methoxyPEG-N-butanamide)40”, “1) administered” for “1)”, “or (ii)” for “or administered”\nThree days following the second Conjugate 1 administration (day 24 after Daudi inoculation), bone marrow was collected and the NK cell fraction was measured by flow cytometry in total bone marrow."}, "Daudi B cell lymphoma [5]": {"system": "Daudi B cell lymphoma", "assay": "Daudi cell counts in bone marrow, low and high doses (Example 14)", "assay_type": "in vivo, mice", "details": "day 24, single agent", "experimental": "SCID mice (N=6/group) were intravenously inoculated with 10 million Daudi cells on Day 0 and treated with a single dose of a lower or higher dose of daratumumab (0.05 mg/kg or 5 mg/kg IP, 14 days following Daudi cell inoculation) and two doses of either lower or higher dose mono(methoxyPEG-N-butanamide)interleukin-15 (compound 1) (0.03 mg/kg or 0.6 mg/kg intravenously, one dose at each of 14 and 21 days after inoculation). Mice were also treated with the single agent therapies: daratumumab (0.05 mg/kg or 5 mg/kg IP, 14 days following Daudi cell inoculation) or two doses of mono(methoxyPEG-N-butanamide)40 kD interleukin-15 (compound 1) (0.03 mg/kg or 0.6 mg/kg intravenously, 14 and 21 days after inoculation). Daudi cell numbers in the bone marrow were assessed three days following the second dose of mono(methoxyPEG-N-butanamide)40 kD interleukin-15 (day 24) by flow cytometry as shown in FIGS. 17A and 17B."}, "NCI-N87 cells": {"system": "NCI-N87 cells", "assay": "Tumor growth inhibition in NCI-N87 gastric carcinoma model (Example 22)", "assay_type": "in vivo, mice", "details": "25 days after treatment initiation; trastuzumab 3/1/1 mg/kg IV; Compound 1 0.3 mg/kg IV x3", "experimental": "Tumor growth inhibition in inoculated mice was measured 25 days after treatment initiation. Results are provided graphically in FIG. 25."}},
  "data": [
    {"substance": "mono(methoxyPEG-N-butanamide)40 kD interleukin-15 [Conjugate 1]", "values": [
      {"measurement": "granzyme B expression in bone marrow NK cells", "setting": "Daudi B cell lymphoma [1]; alone or in combination with daratumumab", "value": "increase granzyme B expression"},
      {"measurement": "increase in NK cell count in bone marrow", "setting": "Daudi B cell lymphoma [1]; day 24, agonist 0.3 mg/kg SC days 14 and 21, daratumumab 0.5 mg/kg IP day 14", "value": 10, "unit": "fold"},
      {"measurement": "% NK cells expressing NKG2A (mean, n = 6)", "setting": "NK cells [2]", "value": 73.70, "unit": "%"},
      {"measurement": "% NK cells expressing NKG2D (mean, n = 6)", "setting": "NK cells [2]", "value": 2.157, "unit": "%"},
      {"measurement": "ADCC, % 7-AAD+ target cells", "setting": "[3]", "value": "enhanced ADCC of daratumumab pre-coated multiple myeloma cells"},
      {"measurement": "Granzyme B mean fluorescence intensity (MFI mean value)", "setting": "NK cells [4]", "value": 2649},
      {"measurement": "Relative Granzyme B expression compared to untreated condition", "setting": "NK cells [4]", "value": 6.7, "unit": "x increase"},
      {"measurement": "intra-bone marrow tumor cells depleted", "setting": "Daudi B cell lymphoma [5]; high dose (daratumumab 5 mg/kg; compound 1 0.6 mg/kg)", "value": 69, "unit": "%"},
      {"measurement": "intra-bone marrow tumor cells depleted", "setting": "Daudi B cell lymphoma [5]; low dose (daratumumab 0.05 mg/kg; compound 1 0.03 mg/kg)", "value": 42, "unit": "%"},
      {"measurement": "tumor growth inhibition", "setting": "NCI-N87 cells", "value": "no tumor growth inhibition"}
    ]}
  ]
}
